These results are taken from patent US10156564B1, “Methods of detecting biomarkers of endoplasmic reticulum (ER) stress-associated kidney diseases” (Washington University, priority 2016, dated 2018).

In series [1] the test system is C57BL/6J mice. The series can be described thus: TM-induced AKI mouse model (kidney and urine CRELD2/BiP, histology). The format is in vivo. As to conditions: for BiP in ER stressed-tubular cells (immunofluorescence): 1 day and 5 days post TM injection (FIG. 19); for urinary CRELD2 excretion (WB): urine within 24 hours after TM 1 mg/kg IP vs vehicle; for BiP in urine (immunodetection): within 24 hr from TM injection, no obvious histological changes of kidney injury (FIG. 20). As to the method: FIG. 10A is a bar graph showing quantitative RT-PCR analysis of relative transcript levels of CRELD2 in kidneys at the indicated time points following TM injection (1 mg/kg, IP) as compared to DMSO vehicle-injected controls. Absolute levels were normalized first to those of GAPDH and then to the levels in the control kidneys (mean±SD). **P<0.01 and ***P<0.001 by ANOVA (n=3 mice per group).
FIG. 10B is a series of images showing dual IF staining for CRELD2 (green) and LTL (red) on paraformaldehyde-fixed, sucrose-cryoprotected kidney sections from mice treated with vehicle or TM (1 mg/kg) at the indicated time points. Nuclei were counterstained with Hoechst 33342 (blue). G: glomerulus. Scale bars, 40 μm.
FIG. 10C is a Western blot showing whole-kidney lysates from mice treated with or without TM (1 mg/kg) at different time points were analyzed by WB for levels of CRELD2 and β-actin.
FIG. 10E is an image of a Western blot showing the detection of urinary CRELD2 within 1 day of TM injection. Urines were collected for 24 hours after the mice were injected with vehicle or 1 mg/kg TM (IP). Crude urine samples from mice treated with vehicle (n=8) or TM (n=8) were analyzed by WB for CRELD2 excretion. The urinary CRELD2 excretion was normalized to 2 μg of urine Cr excretion.
Intraperitoneal (IP) injection of TM in mice is a well characterized AKI model caused by renal proximal tubular ER stress (29). […] In comparison, glomeruli and other organs are spared (21, 29).
TM was dissolved in DMSO at 2 mg/ml, and injected intraperitoneally at 1 mg/kg into 6-10 weeks old C57BL/6J mice. Urine was collected from metabolic cages in which the mice were immediately placed after the injection. 1 day or 5 days after the injection, sera were obtained, and kidneys were harvested. One kidney was snap frozen in dry ice and stored at −70 C until further processing for protein and RNA. The other kidney was fixed in 4% paraformaldehyde (PFA) (pH 7.4) at 4 C and then transferred to 15% and 30% sucrose/PBS for OCT-embedded cryosections.
For dual staining of CRELD2 with biotinylated LTL in mouse kidneys, […]. After dewaxing, PFA-fixed, sucrose-cryoprotected kidney sections from control or TM-treated mice were subjected to antigen retrieval by immersion in 10 mM citric acid buffer (pH 6.0) for 5 minutes at 95 C. […] Nonspecific avidin binding was blocked by an avidin/biotin blocking kit (Vector laboratories) before incubating kidney sections with 1% BSA for 30 minutes at room temperature. The slides were stained with a goat anti-mouse CRELD2 antibody (R&D) together with biotinylated LTL overnight at 4° C., followed by an Alexa 488-conjugated anti-goat secondary antibody and Alexa 594-conjugated streptavidin as well as Hoechst 33342. For CRELD2 staining in sham-operated and post-ischemic kidneys, the fluorescent signal was further amplified using a Fluorescein tyramide amplification kit (Perkin-Elmer, Waltham, Mass.) according to the manufacturer's instructions. Slides were analyzed under a fluorescence microscope (Nikon).
Isolated mouse glomeruli and cultured mouse primary podocytes were lysed by RIPA buffer (Sigma) containing protease inhibitor cocktail (Roche, Indianapolis, Ind.). TM untreated- and treated-kidneys, as well as sham-operated and I/R-injured kidneys, were extracted using the same lysis buffer with the protease inhibitors and homogenized by sonication. The protein concentrations of cell, glomerular and kidney lysates were determined by Bio-Rad protein assay (Hercules, Calif.) using BSA as a standard. Denatured proteins were separated on SDS polyacrylamide gel electrophoresis (SDS-PAGE) and then transferred to PVDF membranes. Blots were blocked with 5% non-fat milk for 1 hour and then incubated overnight with primary antibodies. The membranes were washed with Tris-buffered saline/TWEEN® (polysorbate) buffer and incubated with the appropriate HRP-conjugated secondary antibodies. […]

Another series concerns mouse primary podocytes. The experiment in a line: CRELD2 expression in mouse primary podocytes treated with ER stress inducers (WB, immunofluorescence). As to conditions: for CRELD2 immunofluorescence in podocytes: TM 2 μg/ml or TG 1 μM for 24 h, overlapped with BiP; for CRELD2 expression in cell lysates (WB): TM 2 μg/ml or TG 1 μM for 24 h vs DMSO vehicle. The format is cell-based. As to the method: FIG. 9A is an image of a Western blot showing mouse primary podocytes were treated with DMSO (control), tunicamycin (TM) (2 μg/ml) or thapsigargin (TG) (1 μM) for 24 h. Cell lysates were analyzed by WB with the indicated antibodies. TM and TG are ER stress inducers.
FIG. 9B is a series of images showing control and TM- or TG-treated mouse podocytes, as described in FIG. 9A stained for CRELD2 (red) and BiP (green). Nuclei were counterstained with Hoechst 33342 (blue). Scale bar, 40 μm.
CRELD2 is a urinary biomarker for detecting podocyte ER stress in the early stages of podocyte ER stress-induced nephrotic syndrome (NS) in mice. Initial experiments (see e.g., Example 2) determined ER stress increases CRELD2 expression and secretion in mouse primary podocytes. Mouse podocytes were treated for 24 h with tunicamycin (TM), which activates ER stress by blocking N-linked glycosylation in the ER (26), or TG, which depletes ER calcium through inhibition of ER calcium ATPase (27). […] The effects of ER stress on CRELD2 secretion were also examined.
Isolated glomeruli from Lamb2^+/−, Lamb2^−/−; Tg-C321R and Lamb2^−/−; Tg-WT mice at P27 were suspended in DMEM/Ham's F-12 (2:1) that contained 0.45 μm-filtered 3T3-L1 supernatant, 5% heat inactivated FBS, ITS (Insulin-Transferrin-Sodium Selenite) liquid media supplement, and 100 U/ml penicillin-streptomycin; plated onto collagen type I-coated petri dishes; and incubated at 37° C. in room air with 5% CO2. After 3 days, cell colonies began to sprout around the glomeruli. […] Only passages 1-2 podocytes from the indicated genotypes were used in the in vitro studies.
For immunocytochemistry, mouse primary podocytes were seeded on cover slips coated with 5 μg/ml rat collagen I that was dissolved in 0.02M acetic acid in 24 well plates for 48 hours. After 24 hours treatment with DMSO, TM or TG, the cells were fixed with 4% PFA for 20 minutes and permeabilized with 1% Triton X-100 for 5 minutes at room temperature, blocked with 1% BSA for 30 minutes at room temperature, followed by incubation with goat anti-mouse CRELD2 (R&D) and rabbit anti-mouse BiP antibodies for an additional 1 hour at room temperature. The cover slips were washed with PBS and incubated with the corresponding Alexa 594- or Alexa 488-conjugated secondary antibodies and Hoechst 33342 to stain nuclei. The cover slips were then mounted with anti-quench solution and visualized using a fluorescence microscope (Nikon).
Isolated mouse glomeruli and cultured mouse primary podocytes were lysed by RIPA buffer (Sigma) containing protease inhibitor cocktail (Roche, Indianapolis, Ind.). TM untreated- and treated-kidneys, as well as sham-operated and I/R-injured kidneys, were extracted using the same lysis buffer with the protease inhibitors and homogenized by sonication. The protein concentrations of cell, glomerular and kidney lysates were determined by Bio-Rad protein assay (Hercules, Calif.) using BSA as a standard. Denatured proteins were separated on SDS polyacrylamide gel electrophoresis (SDS-PAGE) and then transferred to PVDF membranes. Blots were blocked with 5% non-fat milk for 1 hour and then incubated overnight with primary antibodies. The membranes were washed with Tris-buffered saline/TWEEN® (polysorbate) buffer and incubated with the appropriate HRP-conjugated secondary antibodies. […] Relative intensities of protein bands were quantified using ImageJ (NIH) analysis software.

Series [2] relates to C57BL/6J mice. As to conditions: cited from earlier work.

“Also recorded” adds a separate entry of the source.

Take tunicamycin [TM]: in the series with C57BL/6J mice [1] (1 day and 5 days post TM injection (FIG. 4)), the “CRELD2 in ER-stressed proximal tubular cells (marked by LTL)” value was “upregulated”. In the series with C57BL/6J mice [1], the “BiP in ER stressed-tubular cells (immunofluorescence)” value is recorded as “upregulated”, the “urinary CRELD2 excretion (WB)” value is “can be detected; also recorded: dramatically increased” and the “BiP in urine (immunodetection)” value is reported as “detected”. In addition, in the series on C57BL/6J mice [1] (listed as tunicamycin), the “BiP in ER stressed-tubular cells (immunofluorescence)” value is “upregulation”, the “urinary CRELD2 excretion (WB)” value was “immunodetection of CRELD2 in the urine” and the “BiP in urine (immunodetection)” value is “immunodetection of BiP in urine”. Besides, the “CRELD2 immunostaining in proximal tubules (co-IF with LTL)” value in the series with C57BL/6J mice [1] (5 days post-injection, TM 1 mg/kg IP) is listed as “subsided”. In the series with C57BL/6J mice [1] (TM-injected kidneys, 1 mg/kg IP), the “CRELD2 induction in glomeruli (IF)” value was “did not exhibit CRELD2 induction”. Besides, in the series on C57BL/6J mice [1] (TM-injected mice (FIG. 18)), the “BiP in kidney lysates (immunodetection)” value was “induced”. Moreover, the “CRELD2 in kidney lysates (immunodetection)” value with C57BL/6J mice [1] (TM-injected mice, time not stated (FIG. 3)) is on record as “induced”. Further, the “CRELD2 transcript levels in whole-kidney lysates (RT-PCR)” value with C57BL/6J mice [1] (day 1 after TM 1 mg/kg IP vs DMSO vehicle or day 5) is given as “significantly increased”. Besides, the “CRELD2 immunostaining in proximal tubules (co-IF with LTL)” value in the series with C57BL/6J mice [1] (day 1 following TM 1 mg/kg IP vs controls) is listed as “substantially upregulated”. In the series with C57BL/6J mice [1] (day 1 vs controls or day 5 post-injection, TM 1 mg/kg IP), the “CRELD2 protein expression in kidneys (WB)” value is on record as “higher”. In addition, in the series on mouse primary podocytes, the “CRELD2 immunofluorescence in podocytes” value is “upregulated” and the “CRELD2 expression in cell lysates (WB)” value is “induced expression of CRELD2”. Besides, the “form of CRELD2 expressed (WB)” value in the series with mouse primary podocytes (TM 2 μg/ml, 24 h) is “underglycosylated form of CRELD2”. Further, in the series with C57BL/6J mice [2] (day 1 after TM injection), the “ER stress response genes including BiP, CHOP, MANF and EDEM” value was “upregulated”; the “renal function and histology” value was “normal renal function and the absence of conspicuous histologic changes”. Further, in the series with C57BL/6J mice [2] (peaks between 4 and 5 days after injection, glomeruli and other organs spared), the “renal histology after IP injection of TM” value is “extensive tubular dilation, epithelial flattening, tubular basement membrane denudation and loss of brush borders in proximal tubules”.
Regarding `C/C=C(/C)C(=O)O[C@H]1C(C)=C2[C@H]([C@@H]1OC(=O)CCCCCCC)[C@@](C)(OC(C)=O)C[C@H](OC(=O)CCC)[C@@]1(O)[C@H]2OC(=O)[C@@]1(C)O` [TG, thapsigargin], in the series with mouse primary podocytes, the “CRELD2 immunofluorescence in podocytes” value is given as “upregulated” and the “CRELD2 expression in cell lysates (WB)” value is on record as “induced expression of CRELD2”.
